Experiment [1] addresses T1, Granzyme A (Homo sapiens) (UniProt P12544).
T1 sequence (whole entry): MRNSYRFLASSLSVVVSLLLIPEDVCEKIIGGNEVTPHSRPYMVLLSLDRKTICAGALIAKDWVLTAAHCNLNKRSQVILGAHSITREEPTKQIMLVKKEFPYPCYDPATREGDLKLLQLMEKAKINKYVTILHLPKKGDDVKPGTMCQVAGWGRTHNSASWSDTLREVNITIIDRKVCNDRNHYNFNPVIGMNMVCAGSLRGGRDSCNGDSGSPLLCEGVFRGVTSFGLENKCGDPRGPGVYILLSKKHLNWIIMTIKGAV
In words: Inhibition of human recombinant GzmA assessed as Kobs/[I].

Another experiment deals with T2, Neutrophil elastase (Homo sapiens, UniProt P08246).
T2 sequence (P08246 whole entry): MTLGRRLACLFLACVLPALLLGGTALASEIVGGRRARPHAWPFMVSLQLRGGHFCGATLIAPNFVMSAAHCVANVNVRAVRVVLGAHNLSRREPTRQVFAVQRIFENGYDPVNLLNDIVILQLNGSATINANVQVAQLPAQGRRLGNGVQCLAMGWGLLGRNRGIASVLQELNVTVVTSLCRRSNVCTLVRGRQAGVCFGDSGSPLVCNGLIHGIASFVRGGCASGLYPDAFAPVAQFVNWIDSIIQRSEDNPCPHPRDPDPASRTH
In words: Inhibition of human NE.

In the case of `N=C(N)SCCOc1oc(=O)c2cc(NC(=O)Nc3ccccc3)ccc2c1Cl`, the kobs/[I] in experiment [1] was found to be 94000 M⁻¹ s⁻¹.

Usually IC50 stands for the point on the concentration scale where inhibition reaches its midpoint. Read a high IC50 as lower potency. On Neutrophil elastase, `O=S(=O)(F)Oc1ccccc1S(=O)(=O)F` returned an IC50 of 240 nM.

These data come from ChEMBL document CHEMBL5241071, “Covalent Small Molecule Immunomodulators Targeting the Protease Active Site” (J Med Chem, 2021).
